System: B16F0 melanoma cells
Assay: Transfection activity in B16F0 melanoma cells
Assay type: cell-based
Conditions: in the absence of helper lipid DOPE
Text: FIG. 2 Transfection activity of 1,3lb3 and other commercially available cationic lipids in B16F0 melanoma cells. Lif/d stands for Lipofectamine/DOPE. The data are the average of six wells two independent experiments (n=3×2).
FIG. 3 Transfection activity of 1,3lb3 (in the absence of DOPE) -a dipalmitoyl analogue with fluid lamellar phases at physiological pH and temperature-against B16F0 tumor melanoma cells. The plasmid DNA consisted of an EGFP reporter gene driven by the SV40 early promoter, cloned into a pUC21 vector (CloneTech Labs).
FIG. 8 Transfection activity as tested by X-gal of cationic lipids against B16F0 melanoma cells in the absence of serum. The (+/−) ratio is fixed to 2. A. lb1 B. lb2 C. lb3 D. lb4 E. lb5

In the case of `CCCCCCCCCCCCCCCC(=O)NCC(CNC(=O)CCCCCCCCCCCCCCC)OC(=O)N(CCN(C)C)CCN(C)C` [13lb3, N,N′-dihexadecanoyl-1,3-diaminopropyl-2-carbamoyl-[bis-(2-dimethylaminoethane)]], the Transfection activity is reported as “efficient transfection activity”.

— patent US20050095280A1, “Single-component pH-sensitive liposomes of reduced solid-to-liquid phase transition temperatures” (Michalakis Savva, priority 2003, published 2005)
